From patent US10004701B2, “Methods and compositions for treating infection” (UNIVERSITY OF ROCHESTER, priority 2012, dated 2018)
Where a name gives a salt, the structure may show the parent alone. Read-outs that look alike come from different tables or passages of the source.

Assays:
Assay in all cases: AK assay 384-well format, Prestwick library screening
[1] = test system: S. aureus strain USA300-0114; assay type: cell-based, Staphylococcus aureus; conditions: for fold induction at 50 µM: Staphylococcus aureus, USA300, 3 h
E. coli = assay type: cell-based, Escherichia coli; conditions: for fold induction at 50 µM: Escherichia coli, 3 h
P. aeruginosa = assay type: cell-based, Pseudomonas aeruginosa; conditions: for fold induction at 50 µM: Pseudomonas aeruginosa, 3 h
E. faecium = assay type: cell-based, Enterococcus faecium; conditions: for fold induction at 50 µM: Enterococcus faecium, 3 h
K. pneumoniae = assay type: cell-based, Klebsiella pneumoniae; conditions: for fold induction at 50 µM: Klebsiella pneumoniae, 3 h
[2] = test system: A. baumannii strain 98-37-09; assay type: cell-based, Acinetobacter baumannii; conditions: for fold induction at 50 µM: Acinetobacter baumannii, 983709, 3 h
E. cloacae = assay type: cell-based, Enterobacter cloacae; conditions: for fold induction at 50 µM: Enterobacter cloacae, 3 h
[3] = 50 μM final drug concentration, 384-well format, […]
[4] = 50 μM final drug concentration, cutoff for positive-scoring molecules 3-fold increase, read-out: AK-based Prestwick Library Screening Results, E. coli (fold increase in extracellular AK activity)
[5] = 50 μM final drug concentration, cutoff for positive-scoring molecules 3-fold increase, read-out: AK-based Prestwick Library Screening Results, P. aeruginosa (fold increase in extracellular AK activity)
[6] = 50 μM final drug concentration, cutoff for positive-scoring molecules 3-fold increase, read-out: AK-based Prestwick Library Screening Results, E. faecium (fold increase in extracellular AK activity)
[7] = 50 μM final drug concentration, cutoff for positive-scoring molecules 3-fold increase, read-out: AK-based Prestwick Library Screening Results, K. pneumoniae (fold increase in extracellular AK activity)
[8] = 50 μM final drug concentration, cutoff for positive-scoring molecules 3-fold increase, read-out: AK-based Prestwick Library Screening Results, A. baumannii (fold increase in extracellular AK activity)
[9] = 50 μM final drug concentration, cutoff for positive-scoring molecules 3-fold increase, read-out: AK-based Prestwick Library Screening Results, E. cloacae (fold increase in extracellular AK activity)
[10] = planktonic P. aeruginosa, 50 μM final drug concentration, cutoff for positive-scoring molecules 3-fold increase, read-out: AK-based Prestwick Library Screening Results, P. aeruginosa (increase in extracellular AK activity)
[11] = planktonic E. faecium, 50 μM final drug concentration, cutoff for positive-scoring molecules 3-fold increase, read-out: AK-based Prestwick Library Screening Results, E. faecium (increase in extracellular AK activity)
[12] = planktonic K. pneumoniae, 50 μM final drug concentration, cutoff for positive-scoring molecules 3-fold increase, read-out: AK-based Prestwick Library Screening Results, K. pneumoniae (increase in extracellular AK activity)
[13] = planktonic A. baumannii, 50 μM final drug concentration, cutoff for positive-scoring molecules 3-fold increase, read-out: AK-based Prestwick Library Screening Results, A. baumannii (increase in extracellular AK activity)
[14] = planktonic E. cloacae, 50 μM final drug concentration, cutoff for positive-scoring molecules 3-fold increase, read-out: AK-based Prestwick Library Screening Results, E. cloacae (increase in extracellular AK activity)

C[C@]12CC[C@@H](O)C[C@H]1CC[C@@H]1[C@@H]2CC[C@]2(C)C(=O)CC[C@@H]12 was tested, and the “AK-based Prestwick Library Screening Results, S. aureus (fold increase in extracellular AK activity)” value [1] was 1.0, the “AK-based Prestwick Library Screening Results, E. coli (fold increase in extracellular AK activity)” value (E. coli) was 1.2 and the “AK-based Prestwick Library Screening Results, P. aeruginosa (fold increase in extracellular AK activity)” value (P. aeruginosa) was 1.1. The “AK-based Prestwick Library Screening Results, E. faecium (fold increase in extracellular AK activity)” value (E. faecium) was 1.0, the “AK-based Prestwick Library Screening Results, K. pneumoniae (fold increase in extracellular AK activity)” value (K. pneumoniae) was 0.9 and the “AK-based Prestwick Library Screening Results, A. baumannii (fold increase in extracellular AK activity)” value [2] was 0.9. The “AK-based Prestwick Library Screening Results, E. cloacae (fold increase in extracellular AK activity)” value (E. cloacae) was 1.9.

For CN1CCc2cccc3c2[C@H]1Cc1ccc(O)c(O)c1-3.CN1CCc2cccc3c2[C@H]1Cc1ccc(O)c(O)c1-3.Cl.Cl.O, the “AK-based Prestwick Library Screening Results, S. aureus (increase in extracellular AK activity)” value [1, 3] was 0.9, the “AK-based Prestwick Library Screening Results, E. coli (increase in extracellular AK activity)” value (E. coli; [3]) was 0.8 and the “AK-based Prestwick Library Screening Results, P. aeruginosa (increase in extracellular AK activity)” value (P. aeruginosa; [3]) was 0.6. The “AK-based Prestwick Library Screening Results, E. faecium (increase in extracellular AK activity)” value (E. faecium; [3]) was 0.8, the “AK-based Prestwick Library Screening Results, K. pneumoniae (increase in extracellular AK activity)” value (K. pneumoniae; [3]) was 0.8 and the “AK-based Prestwick Library Screening Results, A. baumannii (increase in extracellular AK activity)” value [2, 3] was 0.8. The “AK-based Prestwick Library Screening Results, E. cloacae (increase in extracellular AK activity)” value (E. cloacae; [3]) was 0.9.

CCCCC(CC)CNC(=N)NC(=N)NCCCCCCNC(=N)NC(=N)NCC(CC)CCCC (stereo not drawn) [Alexidine dihydrochloride] gave a fold induction at 50 µM (E. coli; [4]) of 43.3, a fold induction at 50 µM (P. aeruginosa; [5]) of 19.2 and a fold induction at 50 µM (E. faecium; [6]) of 7.4. It also gave a fold induction at 50 µM (K. pneumoniae; [7]) of 23.4, a fold induction at 50 µM [2, 8] of 12.3 and a fold induction at 50 µM (E. cloacae; [9]) of 1.5.

Work on O=c1cc(-c2ccc(O)cc2)oc2cc(O)cc(O)c12 [Apigenin] yielded a fold induction at 50 µM (E. coli; planktonic E. coli, 50 μM final drug concentration, cutoff for positive-scoring molecules 3-fold increase, read-out: AK-based Prestwick Library Screening Results, E. coli (increase in extracellular AK activity)) of 0.2, a fold induction at 50 µM (P. aeruginosa; [10]) of 0.2 and a fold induction at 50 µM (E. faecium; [11]) of 0.3. For the same molecule, the fold induction at 50 µM (K. pneumoniae; [12]) was 0.2, the fold induction at 50 µM [2, 13] was 0.2 and the fold induction at 50 µM (E. cloacae; [14]) was 0.5.

In the case of O=C(O)CCCC[C@@H]1SC[C@@H]2NC(=O)N[C@@H]21 [Biotin], the fold induction at 50 µM ([1]; planktonic S. aureus, 50 μM final drug concentration, cutoff for positive-scoring molecules 3-fold increase, read-out: AK-based Prestwick Library Screening Results, S. aureus (increase in extracellular AK activity)) is reported as 1.4, the fold induction at 50 µM (P. aeruginosa; [10]) is reported as 0.7 and the fold induction at 50 µM (E. faecium; [11]) is reported as 0.9. The fold induction at 50 µM (K. pneumoniae; [12]) was 0.6, the fold induction at 50 µM [2, 13] was 0.8 and the fold induction at 50 µM (E. cloacae; [14]) was 0.8.

[H]/N=C(\N/C(=N/[H])NCCCCCCNC(=N)NC(=N)Nc1ccc(Cl)cc1)Nc1ccc(Cl)cc1 [Chlorhexidine, chlorhexidine, reference compound] gave a fold induction at 50 µM (E. coli; planktonic E. coli, 50 μM final drug concentration, 384-well, cutoff for positive-scoring molecules 3-fold increase, read-out: AK-based Prestwick Library Screening Results: E. coli (increase in extracellular AK activity)) of 50.1, a fold induction at 50 µM (P. aeruginosa; planktonic P. aeruginosa, 50 μM final drug concentration, 384-well, cutoff for positive-scoring molecules 3-fold increase, read-out: AK-based Prestwick Library Screening Results: P. aeruginosa (increase in extracellular AK activity)) of 23.8 and a fold induction at 50 µM (E. faecium; planktonic E. faecium, 50 μM final drug concentration, 384-well, cutoff for positive-scoring molecules 3-fold increase, read-out: AK-based Prestwick Library Screening Results: E. faecium (increase in extracellular AK activity)) of 4. The fold induction at 50 µM (K. pneumoniae; planktonic K. pneumoniae, 50 μM final drug concentration, 384-well, cutoff for positive-scoring molecules 3-fold increase, read-out: AK-based Prestwick Library Screening Results: K. pneumoniae (increase in extracellular AK activity)) was 18.8, the fold induction at 50 µM ([2]; planktonic A. baumannii, 50 μM final drug concentration, 384-well, cutoff for positive-scoring molecules 3-fold increase, read-out: AK-based Prestwick Library Screening Results: A. baumannii (increase in extracellular AK activity)) was 12.3 and the fold induction at 50 µM (E. cloacae; planktonic E. cloacae, 50 μM final drug concentration, 384-well, cutoff for positive-scoring molecules 3-fold increase, read-out: AK-based Prestwick Library Screening Results: E. cloacae (increase in extracellular AK activity)) was 1.8.

CS(=O)(=O)c1ccc([C@@H](O)[C@@H](CF)NC(=O)C(Cl)Cl)cc1 [Florfenicol] was tested, and the fold induction at 50 µM (E. coli; 50 μM final drug concentration, […], read-out: AK-based Prestwick Library Screening Results, E. coli (fold increase in extracellular AK activity)) was 1.2, the fold induction at 50 µM (P. aeruginosa; [5]) was 1.4 and the fold induction at 50 µM (E. faecium; [6]) was 1. For the same molecule, the fold induction at 50 µM (K. pneumoniae; [7]) was 0.3, the fold induction at 50 µM [2, 8] was 1.2 and the fold induction at 50 µM (E. cloacae; [9]) was 1.4.

Molecule NNc1nncc2ccccc12 [Hydralazine hydrochloride] has a fold induction at 50 µM ([1]; 50 μM final drug concentration, 384-well format, cutoff for positive-scoring molecules 3-fold increase, read-out: AK-based Prestwick Library Screening Results, S. aureus (increase in extracellular AK activity)) of 0.2, a fold induction at 50 µM (E. faecium; 50 μM final drug concentration, 384-well format, cutoff for positive-scoring molecules 3-fold increase, read-out: AK-based Prestwick Library Screening Results, E. faecium (increase in extracellular AK activity)) of 0.3 and a fold induction at 50 µM ([2]; 50 μM final drug concentration, 384-well format, cutoff for positive-scoring molecules 3-fold increase, read-out: AK-based Prestwick Library Screening Results, A. baumannii (increase in extracellular AK activity)) of 0.1. The fold induction at 50 µM (E. cloacae; 50 μM final drug concentration, 384-well format, cutoff for positive-scoring molecules 3-fold increase, read-out: AK-based Prestwick Library Screening Results, E. cloacae (increase in extracellular AK activity)) was 0.3.

With COc1cc(NC(C)CCCN)c2ncccc2c1 (stereo not drawn) [Primaquine diphosphate] the fold induction at 50 µM ([1]; 50 μM final drug concentration, planktonic, cutoff for positive 3-fold increase, read-out: AK-based Prestwick Library Screening Results, S. aureus (fold increase in extracellular AK activity)) was 2.1, the fold induction at 50 µM (P. aeruginosa; 50 μM final drug concentration, planktonic, cutoff for positive 3-fold increase, read-out: AK-based Prestwick Library Screening Results, P. aeruginosa (fold increase in extracellular AK activity)) was 1 and the fold induction at 50 µM (E. faecium; 50 μM final drug concentration, planktonic, cutoff for positive 3-fold increase, read-out: AK-based Prestwick Library Screening Results, E. faecium (fold increase in extracellular AK activity)) was 0.9. It also gave a fold induction at 50 µM (K. pneumoniae; 50 μM final drug concentration, planktonic, cutoff for positive 3-fold increase, read-out: AK-based Prestwick Library Screening Results, K. pneumoniae (fold increase in extracellular AK activity)) of 1, a fold induction at 50 µM ([2]; 50 μM final drug concentration, planktonic, cutoff for positive 3-fold increase, read-out: AK-based Prestwick Library Screening Results, A. baumannii (fold increase in extracellular AK activity)) of 1.1 and a fold induction at 50 µM (E. cloacae; 50 μM final drug concentration, planktonic, cutoff for positive 3-fold increase, read-out: AK-based Prestwick Library Screening Results, E. cloacae (fold increase in extracellular AK activity)) of 1.4.

CCCCCCCCCCCCCCCC[N+](C)(C)CCN(Cc1ccc(OC)cc1)c1ncccn1 [Thonzonium bromide] gave a fold induction at 50 µM (E. coli; [4]) of 3.2, a fold induction at 50 µM (P. aeruginosa; [5]) of 1.5 and a fold induction at 50 µM (E. faecium; [6]) of 7.5. It also gave a fold induction at 50 µM (K. pneumoniae; [7]) of 4.7, a fold induction at 50 µM [2, 8] of 5.6 and a fold induction at 50 µM (E. cloacae; [9]) of 1.8.

With CN[C@H](CC(C)C)C(=O)N[C@H]1C(=O)N[C@@H](CC(N)=O)C(=O)N[C@H]2C(=O)N[C@H]3C(=O)N[C@H](C(=O)N[C@H](C(=O)O)c4cc(O)cc(O)c4-c4cc3ccc4O)[C@H](O)c3ccc(c(Cl)c3)Oc3cc2cc(c3O[C@@H]2O[C@H](CO)[C@@H](O)[C@H](O)[C@H]2O[C@H]2C[C@](C)(N)[C@H](O)[C@H](C)O2)Oc2ccc(cc2Cl)[C@H]1O [Vancomycin hydrochloride] the fold induction at 50 µM (E. coli; read-out: AK-based Prestwick Library Screening Results, E. coli (increase in extracellular AK activity)) was 1.2, the fold induction at 50 µM (P. aeruginosa; read-out: AK-based Prestwick Library Screening Results, P. aeruginosa (increase in extracellular AK activity)) was 0.9 and the fold induction at 50 µM (E. faecium; read-out: AK-based Prestwick Library Screening Results, E. faecium (increase in extracellular AK activity)) was 1.5. It also gave a fold induction at 50 µM (K. pneumoniae; read-out: AK-based Prestwick Library Screening Results, K. pneumoniae (increase in extracellular AK activity)) of 0.8, a fold induction at 50 µM ([2]; read-out: AK-based Prestwick Library Screening Results, A. baumannii (increase in extracellular AK activity)) of 1.1 and a fold induction at 50 µM (E. cloacae; read-out: AK-based Prestwick Library Screening Results, E. cloacae (increase in extracellular AK activity)) of 0.9.

O=C(NCCNCC(O)COc1ccc(O)cc1)N1CCOCC1 (stereo not drawn) [Xamoterol hemifumarate] was tested, and the fold induction at 50 µM ([1]; read-out: AK-based Prestwick Library Screening Results, S. aureus (fold increase in extracellular AK activity)) was 1.1, the fold induction at 50 µM (P. aeruginosa; read-out: AK-based Prestwick Library Screening Results, P. aeruginosa (fold increase in extracellular AK activity)) was 1.2 and the fold induction at 50 µM (E. faecium; read-out: AK-based Prestwick Library Screening Results, E. faecium (fold increase in extracellular AK activity)) was 1. It also gave a fold induction at 50 µM (K. pneumoniae; read-out: AK-based Prestwick Library Screening Results, K. pneumoniae (fold increase in extracellular AK activity)) of 0.8, a fold induction at 50 µM ([2]; read-out: AK-based Prestwick Library Screening Results, A. baumannii (fold increase in extracellular AK activity)) of 1 and a fold induction at 50 µM (E. cloacae; read-out: AK-based Prestwick Library Screening Results, E. cloacae (fold increase in extracellular AK activity)) of 1.8.
